# Reference: patent US10676468B2, “N-(3-heteroarylaryl)-4-arylarylcarboxamides and analogs as hedgehog pathway inhibitors and use thereof” (IMPACT Therapeutics, Inc., priority 2012, dated 2020)
# Tests used:
# [1] = system: Hedgehog Signaling Pathway; test: SAG-induced differentiation of C3H10T1/2 cells into osteoblastic cells, intracellular alkaline phosphatase activity; assay type: cell-based, mouse; settings: Mus musculus, C3H 10T1/2, 120 h, 1 μM SAG, 5 days, alkaline phosphatase activity (OD405), read-out: IC50 values of compounds that inhibit Hh pathway
# Description: (§1) The Application of SAG to Induce Pluripotent Mesenchymal Mouse Embryonic Cell C3H/10T1/2 to Differentiate into Osteoblastic Cells for the Determination of the Inhibitory Activity of N-(3-(1H-benzo[d]imidazol-2-yl)-4-chlorophenyl)-2-methyl-4-((2S,6R)-2,6-dimethylmorpholino)benzamide and Analogs on Hedgehog Signaling Pathway
# The intracellular alkaline phosphatase activity is a reliable indication of the differentiation process. Therefore this enzymatic activity can be used to monitor the activity of hedgehog pathway inhibitors.
# The C3H10T1/2 cells were grown in DMEM medium supplemented with 10% fetal bovine serum (FBS, Hyclone) at 37° C. with 5% CO2. 10000 cells were sown to each well of a 96-well microplate a day before the experiment and grown overnight. At the day of experiment, the inducing medium and inhibitor solutions were prepared as follows: the reference compound and testing compounds were serially diluted 1 to 3 and 1 to 10 in DMSO to seven concentrations with the eighth concentration being DMSO. A 10-fold dilution was prepared by mixing 10 μL of the DMSO dilution with 90 μL of fresh growing medium. […] Pre-sown cells were taken out from incubator and the medium was removed. To each well, 180 μL inducing medium was added and followed immediately with 20 μL of testing or reference compound dilutions. The testing compound concentrations are between 10 μM and 1 nM. The cells were then return to CO2 incubator to grow additional 5 days at 37° C.
# (§2) After incubating for 5 days, the cells were taken out and intracellular alkaline phosphatase activity was tested. The alkaline phosphatase activity was measured as follows:
# 1) Preparation of Substrate Solution:
# (§3) Solution A: A 0.5 mM MgCl2 (Sigma Prod. No. M-0250) solution was prepared.
# (§4) After the pH value was adjusted to 9.8 with 5 M HCl at 37° C., the total volume was adjusted to 100 mL.
# (§5) After it is completely dissolved the total volume was adjusted to 10 mL with the final concentration being 1 mM.
# Substrate reaction medium: To 10 mL of solution B, 250 μL of solution A and 200 μL of solution C were added, and mixed well.
# 2) the Measurement of Intracellular Alkaline Phosphatase Activity:
# (§6) After taking out the cells from the incubator, the cell culture medium was removed and cells were washed twice with PBS. 20 μL of lysis solution (0.2% Triton solution) was added to each well. After being shaken for 30 min at room temperature, each well of cells received 80 μL of substrate reaction medium. The microplate was placed immediately into a VariSkan Flashplate reader and absorbance at OD405 was read as background reading. The plate was replaced back to cell culture incubator at 37° C. for additional 30 min and the absorbance was read again using VariSkan Flash plate reader at OD405.
# (§7) The data were analyzed by subtracting the background reading from the reading at 30 min, and the obtained numbers were plotted and analyzed with Prism 5 software (GraphPad). The phosphatase activity (calculated OD405) was plotted against the log concentration of testing compound, and the obtained plot was fitted with non-linear curve fitting equation to calculate IC50 values. The curve fitting equation is Y=Bottom+(Top−Bottom)/(1+10^((X−Log IC50))). X is the logarithm of concentration. Y is the measure of alkaline phosphatase activity (OD405).
# (§8) The calculated IC50 value is a measurement of the inhibitory activity of compound to Hh pathway.
# [2] = system: Hedgehog Signaling Pathway; test: SHH-induced differentiation of C3H10T1/2 cells into osteoblastic cells, intracellular alkaline phosphatase activity; assay type: cell-based, mouse; settings: Mus musculus, C3H 10T1/2, 120 h, 10 nM SHH-N, 5 days, alkaline phosphatase activity (OD405), read-out: IC50 values of compounds that inhibit Hh pathway
# Experimental: as §1, with “SHH” for “SAG”, “C3H10T1/2” for “C3H/10T1/2”
# The C3H10T1/2 cells were grown in DMEM medium supplemented with 10% fetal bovine serum (FBS, Hyclone) at 37° C. with 5% CO2. 10000 cells were sown to each well of a 96-well microplate a day before the experiment and grown overnight. […] The reference compound and testing compounds were serially diluted 1 to 3 and 1 to 10 in DMSO to seven concentrations with the eighth concentration being DMSO. A 10-fold dilution was prepared by mixing 10 μL of the DMSO dilutions with 90 μL of fresh growing medium. Pre-sown cells were taken out from incubator and the medium was removed. To each well, 180 μL of inducing medium containing 10 nM of SHH-N was added and followed immediately with 20 μL of 10× testing or reference compound dilutions. The testing compound concentrations are between 10 μM and 10 nM. The cells were then returned to CO2 incubator to grow additional 5 days at 37° C.
# as §2
# 3) Preparation of Substrate Solution:
# as §3, §4, §5
# Substrate reaction medium: to 10 mL of solution B, 250 μL of solution A and 200 μL of solution C were added, and mixed well.
# 4) The Measurement of Intracellular Alkaline Phosphatase Activity:
# as §6
# as §7, with “Y=Bottom+(Top−Bottom)/(1+10^(X−Log IC50)).” for “Y=Bottom+(Top−Bottom)/(1+10^((X−Log IC50))).”
# as §8
Compound,IC50 [1],IC50 [2]
"Cc1cc(N2CCCCC2)ccc1C(=O)Nc1ccc(Cl)c(-c2nc3ccccc3[nH]2)c1 [Example 31, N-(3-(1H-benzo[d]imidazol-2-yl)-4-chlorophenyl)-2-methyl-4-(piperidin-1-yl)benzamide]",229 nM,44 nM
"C[C@@H]1CN(c2ccc(C(=O)Nc3ccc(Cl)c(-c4nc5ccccc5[nH]4)c3)c(N)c2)C[C@H](C)O1 [Example 33, N-(3-(1H-benzo[d]imidazol-2-yl)-4-chlorophenyl)-2-amino-4-((2S,6R)-2,6-dimethylmorpholino)benzamide]",83 nM,22 nM
"C[C@@H]1CN(c2ccc3c(=O)n(-c4ccc(Cl)c(-c5nc6ccccc6[nH]5)c4)cnc3c2)C[C@H](C)O1 [Example 34, 3-(3-(1H-benzo[d]imidazol-2-yl)-4-chlorophenyl)-7-((2S,6R)-2,6-dimethylmorpholino)quinazolin-4(3H)-one]",263 nM,162 nM
"C[C@@H]1CN(c2cc(Cl)c(C(=O)Nc3ccc(Cl)c(-c4nc5ccccc5[nH]4)c3)cn2)C[C@H](C)O1 [Example 36, N-(3-(1H-benzo[d]imidazol-2-yl)-4-chlorophenyl)-4-chloro-6-((2S,6R)-2,6-dimethylmorpholino)nicotinamide]",362 nM,95 nM
"Cc1cc(C(=O)Nc2ccc(Cl)c(-c3nc4ccccc4[nH]3)c2)cnc1N1C[C@@H](C)O[C@@H](C)C1 [Example 37, N-(3-(1H-benzo[d]imidazol-2-yl)-4-chlorophenyl)-5-methyl-6-((2S,6R)-2,6-dimethylmorpholino)nicotinamide]",167 nM,52 nM
"Cc1cc(-c2cccnc2)ccc1C(=O)Nc1ccc(Cl)c(-c2nc3ccccc3[nH]2)c1 [Example 40, N-(3-(1H-benzo[d]imidazol-2-yl)-4-chlorophenyl)-2-methyl-4-(pyridin-3-yl)benzamide]",27 nM,13 nM
"Cc1cc(-c2ccoc2)ccc1C(=O)Nc1ccc(Cl)c(-c2nc3ccccc3[nH]2)c1 [Example 41, N-(3-(1H-benzo[d]imidazol-2-yl)-4-chlorophenyl)-2-methyl-4-(furan-3-yl)benzamide]",99 nM,32 nM
"Cc1cc(-c2ccsc2)ccc1C(=O)Nc1ccc(Cl)c(-c2nc3ccccc3[nH]2)c1 [Example 42, N-(3-(1H-benzo[d]imidazol-2-yl)-4-chlorophenyl)-2-methyl-4-(thiophen-3-yl)benzamide]",230 nM,337 nM
"O=C(Nc1ccc(Cl)c(-c2nc3ccccc3[nH]2)c1)C1CCC(c2ccccc2)CC1 (stereo not shown) [Example 44, N-(3-(1H-benzo[d]imidazol-2-yl)-4-chlorophenyl)-4-phenylcyclohexanecarboxamide]",139 nM,18 nM
"Cc1cc(-c2ccc(C(F)(F)F)cc2)ccc1C(=O)Nc1cccc(-c2nc3ccccc3[nH]2)c1 [Example 45, N-(3-(1H-benzo[d]imidazol-2-yl)phenyl)-3-methyl-4′-(trifluoromethyl)biphenyl-4-carboxamide]",284 nM,20 nM
"Cc1cc(-c2ccc(C(F)(F)F)cc2)ccc1C(=O)N(C)c1ccc(Cl)c(-c2nc3ccccc3[nH]2)c1 [Example 48, N-(3-(1H-benzo[d]imidazol-2-yl)-4-chlorophenyl)-N,3-dimethyl-4′-(trifluoromethyl)biphenyl-4-carboxamide]",> 10000 nM,> 10000 nM
"Cc1cc(-c2ccc(C(F)(F)F)cc2)ccc1C(=O)Nc1ccc(Cl)c(-c2ncc(-c3cccnc3)[nH]2)c1 [Example 51, N-(3-(5-(pyridin-3-yl)-1H-imidazol-2-yl)-4-chlorophenyl)-3-methyl-4′-(trifluoromethyl)biphenyl-4-carboxamide]",> 10000 nM,77 nM
"Cc1cc(-c2ccc(C(F)(F)F)cc2)ccc1C(=O)Nc1ccc(Cl)c(-c2nnc3ccccn23)c1 [Example 52, N-(3-([1,2,4]triazolo[4,3-a]pyridin-3-yl)-4-chlorophenyl)-3-methyl-4′-(trifluoromethyl)biphenyl-4-carboxamide]",740 nM,465 nM
"Cc1cc(-c2ccc(C(F)(F)F)cc2)ccc1C(=O)Nc1ccc(Cl)c(-c2nnc3ncccn23)c1 [Example 53, N-(3-([1,2,4]triazolo[4,3-a]pyrimidin-3-yl)-4-chlorophenyl)-3-methyl-4′-(trifluoromethyl)biphenyl-4-carboxamide]",> 10000 nM,> 10000 nM
"Cc1cc(-c2ccc(C(F)(F)F)cc2)ccc1C(=O)Nc1ccc(Cl)c(-c2nnc3cnccn23)c1 [Example 54, N-(3-([1,2,4]triazolo[4,3-a]pyrazin-3-yl)-4-chlorophenyl)-3-methyl-4′-(trifluoromethyl)biphenyl-4-carboxamide]",> 10000 nM,> 10000 nM
"Cc1cc(-c2ccc(C(F)(F)F)cc2)ccc1C(=O)Nc1cccc(-c2cn3cccnc3n2)c1 [Example 55, N-(3-(imidazo[1,2-a]pyrimidin-2-yl)phenyl)-3-methyl-4′-(trifluoromethyl)biphenyl-4-carboxamide]",> 10000 nM,> 10000 nM
"Cc1cc(-c2ccc(C(F)(F)F)cc2)ccc1C(=O)Nc1cccc(-c2cn3ccccc3n2)c1 [Example 56, N-(3-(imidazo[1,2-a]pyridin-2-yl)phenyl)-3-methyl-4′-(trifluoromethyl)biphenyl-4-carboxamide]",2370 nM,189 nM
"C[C@@H]1CN(c2ccc(C(=O)Nc3cccc(-c4cn5cccnc5n4)c3)cn2)C[C@H](C)O1 [Example 57, N-(3-(imidazo[1,2-a]pyrimidin-2-yl)phenyl)-6-((2S,6R)-2,6-dimethylmorpholino)nicotinamide]",> 10000 nM,> 10000 nM
"C[C@@H]1CN(c2ccc(C(=O)Nc3ccc(Cl)c(-c4nnc5cnccn45)c3)cn2)C[C@H](C)O1 [Example 58, N-(3-([1,2,4]triazolo[4,3-a]pyrazin-3-yl)-4-chlorophenyl)-6-((2S,6R)-2,6-dimethylmorpholino)nicotinamide]",> 10000 nM,> 10000 nM
"Cc1cc(-c2ccc(C(F)(F)F)cc2)ccc1C(=O)Nc1cc(-c2nc3ccccc3[nH]2)ccn1 [Example 61, N-(4-(1H-benzo[d]imidazol-2-yl)pyridin-2-yl)-3-methyl-4′-(trifluoromethyl)biphenyl-4-carboxamide]",> 10000 nM,> 10000 nM
